Results: patent publication US20250206704A1, “ENGINEERED IONOPHORES FOR TRANSPORT OF METAL IONS” (The Brigham and Women's Hospital, Inc., priority 2022, published 2025)
Values after ≈ are worked out from the molar mass of the structure shown. Read-outs that look alike come from different tables or passages of the source.

Assays:
[1] = system: Staphylococcus epidermidis; assay: MIC, broth microdilution; type: cell-based
Source text: (§1) Next, Applicants evaluated the antibacterial activities of the ionophores. First, Applicants determined their minimum inhibitory concentration (MIC) in the gram-positive bacterium that causes hospital-acquired infections, Staphylococcus epidermidis.
Applicants reasoned that limiting extracellular zinc with EDTA would abolish ionophore activity by depleting the available metal ions for membrane transport. […] [24]
(§2) Staphylococcus epidermidis ATCC® 12228™, Staphylococcus caprae ATCC® 51549™, Bacillus subtilis ATCC® 6051™, and Bacillus cereus ATCC® 14579™ were grown in cation-adjusted Mueller-Hinton broth (CA-MHB) (catalog no. 90922, Sigma) as per the Clinical and Laboratory Standards Institute guidelines.2 Bacteria were routinely grown at 37° C. under aerobic conditions.
(§3) The MIC assay was performed according to the Clinical and Laboratory Standards Institute protocols.^3 The antibacterial activities of the compounds were measured using the broth microdilution method. Serial dilutions of compounds were prepared in cation-adjusted Müller Hinton Broth. Each dilution (100 μL) was dispensed to each well of a round-bottom plate to obtain final concentrations ranging from 0.07815-40 μM. Bacteria were grown at 37° C. overnight on cation-adjusted Müller Hinton Broth. The bacterial solution was prepared in 0.9% saline and adjusted to obtain an OD600=0.1 using a SpectraMax M5 (Molecular Devices). The resultant suspension was diluted 1:20 with cation-adjusted Müller Hinton Broth. The resulting mixture (10 μL) was added to each well of the plates (approximately 5×10^4 CFU/well), mixed, and incubated at 37° C. for 24 h. The MIC value was determined as the minimum concentration that inhibited the growth of bacteria.

[2] = UV/Vis titration, stability constant (logK) with ZnCl2; type: physicochemical; conditions: UV/Vis titration with ZnCl2, TitrationFit
Source text: Applicants validated the design principles by confirming that the silyl group lowered the binding affinity and shielded the hydrophilic pocket. […] [17] […] Applicants confirmed that all compounds bound Zn^II with 1:1 stoichiometry (FIG. 12). […] Applicants superimposed the X-ray structure of the TIPS-containing Zn^II:9 complex with the literature precedented Zn^II:1 and observed significant structural distortion in the Zn^II:9 complex, which could explain the lower logK.
A solution of ligand was prepared in acetonitrile. The starting concentration was chosen to be around 0.10 mM, based on the absorption maximum of the compound. This solution (2.5 mL) was pipetted into a quartz cuvette with a 1-cm optical path length. The titration was performed by the stepwise addition of a 10-mM ZnC12 solution in acetonitrile. The absorption spectra were measured over the range of 250-800 nm. The calculation of the stability constants was accomplished using TitrationFit.1

[3] = system: Staphylococcus caprae; assay: MIC, broth microdilution; type: cell-based; conditions: Table 4, read-out: Strain MIC S. caprae
Protocol: as §1, §2, §3

[4] = system: Bacillus cereus; assay: MIC, broth microdilution; type: cell-based; conditions: Table 4, read-out: Strain MIC B. cereus
Protocol: as §1, §2, §3

[5] = system: Bacillus subtilis; assay: MIC, broth microdilution; type: cell-based; conditions: Table 4, read-out: Strain MIC B. subtilis
Protocol: as §1, §2, §3

[6] = Co-incubation kinetic study of ligand exchange with DA-ZP1 in presence of compound and Zn(II); type: physicochemical; conditions: 10 μM compound with 10 μM Zn^II, then 5 μM DA-ZP1
Protocol: The compound in phosphate-buffered saline (PBS) was added to a 96-well microplate (250 μL, 10 μM per well, Nunc 96-well plates) and incubated with 10 μM of ZnCl2. […] Reaction kinetics were monitored by measuring the fluorescence of the activated fluorescein dye (λex=490 nm, λem=522 nm) over 2 h.

[7] = Table 4, read-out: Strain MIC S. epidermidis

| Compound | MIC [1, 7] | MIC ([1]; read-out: MIC) | logK (Zn^II binding) [2] | MIC [3] | MIC [4] | MIC [5] | change of MIC with additional Zn^II in the media [1] | change of MIC in presence of EDTA ([1]; 50 μM EDTA) | ligand exchange with DA-ZP1 (fluorescence increase) [6] |
| --- | --- | --- | --- | --- | --- | --- | --- | --- | --- |
| CC(C)(C)[Si](C)(C)c1cccc(CN(Cc2ccccn2)Cc2ccccn2)c1O [Compound 8, 2-((bis(pyridin-2-ylmethyl)amino)methyl)-6-(tert-butyldimethylsilyl)phenol] | 4.2 µg/mL (≈ 10 µM) | ~4.2 µg/mL (≈ 10 µM) | 7.5 | 1.1 µg/mL (≈ 2.62 µM) | 4.2 µg/mL (≈ 10 µM) | 4.2 µg/mL (≈ 10 µM) | – | – | – |
| CC(C)[Si](c1cccc(CN(Cc2ccccn2)Cc2ccccn2)c1O)(C(C)C)C(C)C [Compound 9, 2-((bis(pyridin-2-ylmethyl)amino)methyl)-6-(triisopropylsilyl)phenol] | 1.2 µg/mL (≈ 2.6 µM) | ~1.2 µg/mL (≈ 2.6 µM) | 6.9 | 0.3 µg/mL (≈ 0.65 µM) | 1.2 µg/mL (≈ 2.6 µM) | 1.2 µg/mL (≈ 2.6 µM) | unaltered | dramatically increased | rapid increase in fluorescence |
